Measurements published in BindingDB's records for doi:10.1021/cb100011u (Academia Sinica, 2010).

Tests used:
[1] = biological target: T1, Beta-hexosaminidase subunit beta (Homo sapiens, UniProt P07686); assay: Enzyme Inhibition Assay; details: pH 4.25; 30 °C
T1 sequence (P07686 whole entry): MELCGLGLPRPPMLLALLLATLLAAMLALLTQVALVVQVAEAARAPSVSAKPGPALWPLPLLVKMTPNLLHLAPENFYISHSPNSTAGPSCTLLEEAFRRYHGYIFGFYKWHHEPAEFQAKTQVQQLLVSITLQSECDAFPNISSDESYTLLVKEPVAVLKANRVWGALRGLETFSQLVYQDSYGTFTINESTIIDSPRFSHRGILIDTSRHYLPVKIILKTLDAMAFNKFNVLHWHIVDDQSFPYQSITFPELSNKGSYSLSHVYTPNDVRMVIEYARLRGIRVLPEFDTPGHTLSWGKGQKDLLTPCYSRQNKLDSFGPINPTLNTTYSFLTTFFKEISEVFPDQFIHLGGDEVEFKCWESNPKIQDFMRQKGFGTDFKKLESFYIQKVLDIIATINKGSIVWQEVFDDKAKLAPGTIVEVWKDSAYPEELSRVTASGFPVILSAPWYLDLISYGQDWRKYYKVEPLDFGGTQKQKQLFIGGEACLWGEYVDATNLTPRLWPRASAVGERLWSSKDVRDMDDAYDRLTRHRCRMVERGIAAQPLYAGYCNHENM
Excerpt: (§1) Enzyme inhibition activity assay using 4-methylumbelliferyl N-acetylglucosamine (MUG) as substrate.

[2] = biological target: T2, Protein O-GlcNAcase (Homo sapiens, UniProt O60502); assay: Enzyme Inhibition Assay; details: pH 4.25; 30 °C
T2 sequence (O60502 whole entry): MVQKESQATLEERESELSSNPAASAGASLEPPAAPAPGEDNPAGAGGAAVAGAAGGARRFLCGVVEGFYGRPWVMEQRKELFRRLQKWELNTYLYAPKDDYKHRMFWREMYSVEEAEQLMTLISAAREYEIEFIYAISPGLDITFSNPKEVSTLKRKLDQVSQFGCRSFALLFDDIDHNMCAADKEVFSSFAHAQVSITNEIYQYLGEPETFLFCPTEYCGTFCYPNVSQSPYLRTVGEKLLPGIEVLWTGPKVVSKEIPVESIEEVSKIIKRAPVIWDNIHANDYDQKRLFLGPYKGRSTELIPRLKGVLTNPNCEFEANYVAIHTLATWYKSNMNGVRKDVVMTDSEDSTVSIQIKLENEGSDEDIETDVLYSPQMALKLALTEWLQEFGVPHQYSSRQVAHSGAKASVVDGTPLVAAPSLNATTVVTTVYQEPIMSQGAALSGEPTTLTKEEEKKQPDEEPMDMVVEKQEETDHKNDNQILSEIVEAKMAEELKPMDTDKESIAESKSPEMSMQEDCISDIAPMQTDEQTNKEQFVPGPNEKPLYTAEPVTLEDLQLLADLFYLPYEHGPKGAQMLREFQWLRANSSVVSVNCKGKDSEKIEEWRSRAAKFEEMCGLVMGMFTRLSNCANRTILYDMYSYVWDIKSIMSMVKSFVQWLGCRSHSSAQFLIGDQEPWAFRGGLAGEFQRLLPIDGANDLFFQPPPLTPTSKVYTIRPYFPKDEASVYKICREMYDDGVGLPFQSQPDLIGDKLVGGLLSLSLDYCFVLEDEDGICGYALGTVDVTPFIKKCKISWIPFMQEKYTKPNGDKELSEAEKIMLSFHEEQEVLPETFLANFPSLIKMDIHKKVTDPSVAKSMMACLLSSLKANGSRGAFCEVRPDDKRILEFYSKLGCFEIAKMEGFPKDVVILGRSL
Excerpt: as §1

Ki [1]: 0.54 µM
Ki [2]: 23.6 µM
SMILES: CC(=O)N[C@H]1CN[C@H](CO)[C@@H](O)[C@@H]1O
